Results published in patent US20250230138A1, “COMPOUNDS HAVING A T-STRUCTURE FORMED BY AT LEAST FOUR CYCLES FOR USE IN THE TREATMENT OF CANCER AND OTHER INDICATIONS” (TheRas, Inc., priority 2022, published 2025).
Like-named read-outs stand apart in the source and are kept apart here.

Tests used:
[1] = target: Cys242 in human PIK3CA (157-299) (Homo sapiens (Human), UniProt P42336); test: Covalent modification assay using MALDI-TOF MS; assay type: biochemical; conditions: 4 h reaction time point; 3.33 μM protein target, 1:7.5 protein to compound ratio (compounds 1-852)
Sequence of Cys242 in human PIK3CA (157-299) (P42336 157-299): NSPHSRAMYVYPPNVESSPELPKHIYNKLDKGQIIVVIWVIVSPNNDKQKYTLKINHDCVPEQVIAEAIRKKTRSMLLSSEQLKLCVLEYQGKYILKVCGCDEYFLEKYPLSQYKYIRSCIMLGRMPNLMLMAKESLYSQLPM
How it was run: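 PIK3CA (157-299), 3.33 or 1 μM in 20 mM HEPES, 150 mM NaCl, 2 mM MgCl2, pH 7.3, was incubated with compound at room temperature in the dark for 15 min, 30 min, 2 h or 4 h. Linear MALDI-TOF read-out; % modification = adduct peak height over summed heights of all protein species.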

[2] = test system: pAKT in BT474 cells; test: Cell-based pAKT HTRF assay in BT474 cells; conditions: BT474 cells, 4 hr incubation, Compounds 10-999, read-out: pAKT inhibition IC50 in BT474 cells
How it was run: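 Cells are seeded on day 1 and dosed on day 2 with a 9-point curve (3 μM top, 3-fold). After 4 hr they are lysed and the lysate is mixed with d2- and Eu Cryptate-labelled antibodies. HTRF is read after 4–24 h at room temperature.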

SMILES	IC50 ([2]; Homo sapiens, BT-474)	IC50 [2]	% of modification [1]
C=CC(=O)N1CCc2nc(-c3nc(-c4cnn(C5CNC5)c4)c4ccsc4c3-c3ccc(F)cc3OCCOC)sc2C1 [Compound 132, 1-[2-[4-[1-(azetidin-3-yl)pyrazol-4-yl]-7-[4-fluoro-2-(2-methoxyethoxy)phenyl]thieno[3,2-c]pyridin-6-yl]-6,7-dihydro-4H-thiazolo[5,4-c]pyridin-5-yl]prop-2-en-1-one]	100 to 1000 nM		A (percent of modification of PIK3CA protein ≥75%)
C=CC(=O)N1CCc2nc(-c3nc(-c4cnc(N)nc4)c4ccsc4c3-c3ccc(F)cc3OCCOC)sc2C1 [Compound 133]		< 100 nM	A (percent of modification of PIK3CA protein ≥75%)
C=CC(=O)N1CC(n2cc(-c3nc(N4CC5CNCC5C4)c4ccsc4c3-c3ccc(F)cc3OCCOC)cn2)C1 (stereo not drawn) [Compound 134]		1000 to 3000 nM	B (50%<percent of modification <75%)
C=CC(=O)N1CCc2nc(-c3nc(-c4ccc5c(c4)CCN(C(C)C)C5)c4ccsc4c3-c3ccc(F)cc3OCCOC)sc2C1 [Compound 135]		< 100 nM	A (percent of modification of PIK3CA protein ≥75%)
C=CC(=O)N1CC(n2cc(-c3nc(-c4ccc5c(c4)CCNC5)c4ccsc4c3-c3ccc(F)cc3OC(F)F)cn2)C1 [Compound 136]		100 to 1000 nM	A (percent of modification of PIK3CA protein ≥75%)
COc1cc(F)ccc1-c1c(-c2cnn(C3CN(C(=O)/C=C/CN(C)C)C3)c2)nc(-c2cnn(CC(F)F)c2)c2ccsc12 [Compound 137]		1000 to 3000 nM	C (25%≤percent of modification <50%)
C=CC(=O)N1CC(n2cc(-c3nc(N4CC5(CCNCC5)C4)c4ccsc4c3-c3ccc(F)cc3OCCOC)cn2)C1 [Compound 138]		100 to 1000 nM	A (percent of modification of PIK3CA protein ≥75%)
C=CC(=O)N1CCc2nc(-c3nc(-c4ccn(C(C)C)c(=O)c4)c4ccsc4c3-c3ccc(F)cc3OCCOC)sc2C1 [Compound 139]		100 to 1000 nM	A (percent of modification of PIK3CA protein ≥75%)
C=CC(=O)N1CCc2nc(-c3nc(N4CCN(C(C)C)CC4)c4ccsc4c3-c3ccc(F)cc3OCCOC)sc2C1 [Compound 140]		100 to 1000 nM	A (percent of modification of PIK3CA protein ≥75%)
C=CC(=O)N1CCc2nc(-c3nc(-c4ccnc(N)c4)c4ccsc4c3-c3ccc(F)cc3OCCOC)sc2C1 [Compound 141]		< 100 nM	A (percent of modification of PIK3CA protein ≥75%)
C=CC(=O)N1CCc2nc(-c3nc(-c4ccc(N)nc4)c4ccsc4c3-c3ccc(F)cc3OCCOC)sc2C1 [Compound 142]		< 100 nM	A (percent of modification of PIK3CA protein ≥75%)
C=CC(=O)N1CCc2nc(-c3nc(C4CCN(C(C)C)CC4)c4ccsc4c3-c3ccc(F)cc3OCCOC)sc2C1 [Compound 143, 1-(2-(7-(4-fluoro-2-(2-methoxyethoxy)phenyl)-4-(1-isopropylpiperidin-4-yl)thieno[3,2-c]pyridin-6-yl)-6,7-dihydrothiazolo[5,4-c]pyridin-5(4H)-yl)prop-2-en-1-one]	100 to 1000 nM		A (percent of modification of PIK3CA protein ≥75%)
C=CC(=O)N1CCc2nc(-c3nc(-c4cnn(C)c4)c4ccsc4c3-c3ccc(F)cc3OCC3CCNC(=O)C3)sc2C1 (stereo not drawn) [Compound 144, 4-[[5-fluoro-2-[4-(1-methylpyrazol-4-yl)-6-(5-prop-2-enoyl-6,7-dihydro-4H-thiazolo[5,4-c]pyridin-2-yl)thieno[3,2-c]pyridin-7-yl]phenoxy]methyl]piperidin-2-one]	< 100 nM		A (percent of modification of PIK3CA protein ≥75%)
C=CC(=O)N1CC(n2cc(-c3nc(C4=CCC5(CC4)CNC5)c4ccsc4c3-c3ccc(F)cc3OCCOC)cn2)C1 [Compound 145]		1000 to 3000 nM	A (percent of modification of PIK3CA protein ≥75%)
C=CC(=O)N1CCc2sc(-c3nc(-c4ccc5c(c4)CCNC5)c4ccsc4c3-c3ccc(F)cc3OCCOC)nc2C1 [Compound 146]		< 100 nM	A (percent of modification of PIK3CA protein ≥75%)
C=CC(=O)N1CC(n2cc(-c3nc(C4CCC5(CC4)CNC5)c4ccsc4c3-c3ccc(F)cc3OCCOC)cn2)C1 [Compound 147]		1000 to 3000 nM	A (percent of modification of PIK3CA protein ≥75%)
C=CC(=O)N1CCc2nc(-c3nc(-c4ccc5c(c4)CCC(N(C)C)C5)c4ccsc4c3-c3ccc(F)cc3OCCOC)sc2C1 (stereo not drawn) [Compound 148]		< 100 nM	A (percent of modification of PIK3CA protein ≥75%)

Now from value to molecule, other results behind:

IC50 ([2]; Homo sapiens, BT-474)	IC50 [2]	SMILES	% of modification [1]
	100 to 1000 nM	C=CC(=O)N1CC(n2cc(-c3nc(N4CCC5(CC4)CS(=O)(=O)C5)c4ccsc4c3-c3ccc(F)cc3OCCOC)cn2)C1 [Compound 149]	A (percent of modification of PIK3CA protein ≥75%)
	100 to 1000 nM	C=CC(=O)N1CC(n2cc(-c3nc(N4CCC5(CC4)CNC(=O)C5)c4ccsc4c3-c3ccc(F)cc3OCCOC)cn2)C1 [Compound 150]	A (percent of modification of PIK3CA protein ≥75%)
< 100 nM		C=CC(=O)N1CCc2nc(-c3nc(-c4ccc5c(c4)CS(=N)(=O)C5)c4ccsc4c3-c3ccc(F)cc3OCCOC)sc2C1 (stereo not drawn) [Compound 151, 1-[2-[7-[4-fluoro-2-(2-methoxyethoxy)phenyl]-4-(2-imino-2-oxo-1,3-dihydro-2-benzothiophen-5-yl)thieno[3,2-c]pyridin-6-yl]-6,7-dihydro-4H-thiazolo[5,4-c]pyridin-5-yl]prop-2-en-1-one]	A (percent of modification of PIK3CA protein ≥75%)
	< 100 nM	C=CC(=O)N1CCc2nc(-c3nc(-c4ccc5c(c4)C(O)CC5)c4ccsc4c3-c3ccc(F)cc3OCCOC)sc2C1 (stereo not drawn) [Compound 152]	A (percent of modification of PIK3CA protein ≥75%)
	< 100 nM	C=CC(=O)N1CCc2nc(-c3nc(-c4ccc5c(c4)CNC5)c4ccsc4c3-c3ccc(F)cc3OCCOC)sc2C1 [Compound 153]	A (percent of modification of PIK3CA protein ≥75%)
	< 100 nM	C=CC(=O)N1CC(n2cc(-c3nc(-c4ccc5c(c4)CCNC5)c4c(c3-c3ccc(F)cc3OCCOC)CCC4)ccc2=O)C1 [Compound 154]	A (percent of modification of PIK3CA protein ≥75%)
	< 100 nM	C=CC(=O)N1CCc2nc(-c3nc(-c4ccc5c(c4)CCNC5)c4ccsc4c3-c3ccc(F)cc3OC(C)C)sc2C1 [Compound 155]	A (percent of modification of PIK3CA protein ≥75%)
	< 100 nM	C=CC(=O)N1CCc2nc(-c3nc(-c4ccc5c(c4)CC(N)C5)c4ccsc4c3-c3ccc(F)cc3OCCOC)sc2C1 (stereo not drawn) [Compound 156]	A (percent of modification of PIK3CA protein ≥75%)
	< 100 nM	C=CC(=O)N1CC(n2cc(-c3nc(-c4ccc5c(c4)CCNC5)c4ccsc4c3-c3ccc(F)cc3OCCOC)ccc2=O)C1 [Compound 157]	A (percent of modification of PIK3CA protein ≥75%)
	100 to 1000 nM	C=CC(=O)N1CC(n2cc(-c3nc(N4CCc5n[nH]c(=O)cc5C4)c4ccsc4c3-c3ccc(F)cc3OCCOC)cn2)C1 [Compound 158]	A (percent of modification of PIK3CA protein ≥75%)
	100 to 1000 nM	C=CC(=O)N1CCc2nc(-c3nc(N4CCCC(N(C)C)C4)c4ccsc4c3-c3ccc(F)cc3OCCOC)sc2C1 (stereo not drawn) [Compound 159]	B (50%<percent of modification <75%)
	< 100 nM	C=CC(=O)N1CCc2nc(-c3nc(-c4ccc5c(c4)CCC5N)c4ccsc4c3-c3ccc(F)cc3OCCOC)sc2C1 (stereo not drawn) [Compound 160]	A (percent of modification of PIK3CA protein ≥75%)
	< 100 nM	C=CC(=O)N1CCc2nc(-c3nc(-c4ccc5c(c4)CCNC5)c4ccsc4c3-c3ccc(F)cc3OCC3CC3)sc2C1 [Compound 161]	A (percent of modification of PIK3CA protein ≥75%)
	< 100 nM	C=CC(=O)N1CCc2nc(-c3nc(-c4ccc5c(c4)C(N)CC5)c4ccsc4c3-c3ccc(F)cc3OCCOC)sc2C1 (stereo not drawn) [Compound 162]	A (percent of modification of PIK3CA protein ≥75%)
	< 100 nM	C=CC(=O)N1CCc2nc(-c3nc(-c4ccc5c(c4)NC(=O)C5)c4ccsc4c3-c3ccc(F)cc3OCCOC)sc2C1 [Compound 163]	A (percent of modification of PIK3CA protein ≥75%)
	< 100 nM	C=CC(=O)N1CCc2nc(-c3nc(-c4ccc(=O)n(C)c4)c4ccsc4c3-c3ccc(F)cc3OCCOC)sc2C1 [Compound 164]	A (percent of modification of PIK3CA protein ≥75%)
	< 100 nM	C=CC(=O)N1CC(n2nc(C)c(-c3nc(-c4ccc5c(c4)CCNC5)c4ccsc4c3-c3ccc(F)cc3OC)c2C)C1 [Compound 165]	A (percent of modification of PIK3CA protein ≥75%)
	100 to 1000 nM	C=CC(=O)N1CC(n2cc(-c3nc(N4CCc5cn[nH]c5C4)c4ccsc4c3-c3ccc(F)cc3OCCOC)cn2)C1 [Compound 166]	A (percent of modification of PIK3CA protein ≥75%)
	100 to 1000 nM	C=CC(=O)N1CCc2nc(-c3nc(N4CCN(S(C)(=O)=O)CC4)c4ccsc4c3-c3ccc(F)cc3OCCOC)sc2C1 [Compound 167]	B (50%<percent of modification <75%)
